Test results published in US20240425518A1, “N-MACROCYCLIC AMIDE COMPOUNDS, PREPARATION METHODS THEREOF AND APPLICATIONS THEREOF AS MEDICAMENTS” (Chengdu FANXI Biopharma Co., Ltd., priority 2023, published 2024).
Positions count from the first letter of the chain named.

Experiments:
Type in all cases: biochemical
TrkA (h) = molecular target: T1, TrkA (h) (Homo sapiens, UniProt P04629); test: Radioisotope labeling kinase assay (Eurofins), TrkA
T1 construct: purchased Eurofins
Procedure: (§1) An activity to a human recombinant protein kinase of a series of compounds was determined by a radioisotope labeling method, which was provided by Eurofins Company. A compound to be detected was mixed with a corresponding protein kinase buffer (20 mM propyl sulfonate (MOPS, […].), 1 mM EDTA, 0.10 β-mercaptoethanol, 0.010 Brij-35, […], and 1 mg/mL BSA), the mixture was added into a reaction system (100 μM reaction substrate […], 8 mM MOPS with a pH value of 7.0, 10 mM MgAcetate, 0.2 mM EDTA, and a certain concentration of γ-^33P-ATP). After adding an MgATP composite solution, the reaction was started at room temperature for 40 minutes, and the reaction was terminated by adding 5 μl of […] solution. Then, 10 μl of reaction solution was dropwise added onto a filter and washed with 75 mM phosphoric acid solution for three times, 5 minutes each time, then washed with methanol once again, and dried and subjected to scintillation counting.

JAK1 (h) = molecular target: T2, JAK1 (h) (Homo sapiens, UniProt P23458); test: Radioisotope labeling kinase assay (Eurofins), JAK1
T2 construct: purchased Eurofins
Procedure: as §1

Flt3 (h) = molecular target: T3, Flt3 (h) (Homo sapiens, UniProt P36888); test: Radioisotope labeling kinase assay (Eurofins), Flt3; conditions: for activity at 1 µM: 1 μM compound, read-out: Inhibitory activity per unit concentration/Activity % Flt3 (h)
T3 construct: purchased Eurofins
T3 sequence (P36888 27-993): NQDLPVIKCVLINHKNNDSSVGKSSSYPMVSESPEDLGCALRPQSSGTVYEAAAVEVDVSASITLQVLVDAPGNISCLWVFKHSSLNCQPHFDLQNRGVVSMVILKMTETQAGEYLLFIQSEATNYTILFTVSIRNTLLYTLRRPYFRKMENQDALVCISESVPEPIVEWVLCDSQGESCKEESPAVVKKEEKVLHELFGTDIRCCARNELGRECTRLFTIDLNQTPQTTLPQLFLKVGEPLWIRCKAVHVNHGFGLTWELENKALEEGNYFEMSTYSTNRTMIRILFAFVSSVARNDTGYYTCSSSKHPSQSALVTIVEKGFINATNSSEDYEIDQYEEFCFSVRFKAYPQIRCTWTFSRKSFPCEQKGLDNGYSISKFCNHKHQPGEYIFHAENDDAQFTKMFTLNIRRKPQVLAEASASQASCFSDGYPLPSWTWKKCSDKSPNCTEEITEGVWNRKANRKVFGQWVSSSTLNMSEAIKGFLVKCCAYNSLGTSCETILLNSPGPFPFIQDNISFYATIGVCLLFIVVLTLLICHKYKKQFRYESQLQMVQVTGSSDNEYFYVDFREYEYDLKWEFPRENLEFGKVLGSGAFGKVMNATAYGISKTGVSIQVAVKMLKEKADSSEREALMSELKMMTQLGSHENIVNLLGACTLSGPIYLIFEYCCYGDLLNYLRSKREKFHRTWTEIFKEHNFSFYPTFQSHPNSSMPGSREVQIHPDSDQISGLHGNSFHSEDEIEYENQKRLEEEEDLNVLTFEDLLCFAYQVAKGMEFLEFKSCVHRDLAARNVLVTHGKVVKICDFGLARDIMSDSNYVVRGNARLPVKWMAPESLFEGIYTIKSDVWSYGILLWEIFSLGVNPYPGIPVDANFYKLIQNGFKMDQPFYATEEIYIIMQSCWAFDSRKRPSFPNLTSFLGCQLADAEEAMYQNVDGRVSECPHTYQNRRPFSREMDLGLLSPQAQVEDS
Procedure: as §1

JAK2 (h) = molecular target: T4, JAK2 (h) (Homo sapiens, UniProt O60674); test: Radioisotope labeling kinase assay (Eurofins), JAK2
T4 construct: purchased Eurofins
Procedure: as §1

Flt3 (D835Y) (h) = molecular target: T5, Flt3 (D835Y) (h) (Homo sapiens, UniProt P36888, D835Y); test: Radioisotope labeling kinase assay (Eurofins), Flt3 (D835Y); conditions: for activity at 1 µM: 1 μM compound, read-out: Inhibitory activity per unit concentration/Activity % Flt3 (D835Y) (h)
T5 construct: purchased Eurofins
T5 sequence (P36888 27-993 D835Y): T3 sequence (P36888 27-993) with D809Y
Procedure: as §1

BTK (h) = molecular target: T6, BTK (h) (Homo sapiens, UniProt Q06187); test: Radioisotope labeling kinase assay (Eurofins), BTK; conditions: for activity at 1 µM: 1 μM compound, read-out: Inhibitory activity per unit concentration/Activity % BTK (h)
T6 construct: purchased Eurofins
Procedure: as §1

T6 sequence (Q06187 whole entry): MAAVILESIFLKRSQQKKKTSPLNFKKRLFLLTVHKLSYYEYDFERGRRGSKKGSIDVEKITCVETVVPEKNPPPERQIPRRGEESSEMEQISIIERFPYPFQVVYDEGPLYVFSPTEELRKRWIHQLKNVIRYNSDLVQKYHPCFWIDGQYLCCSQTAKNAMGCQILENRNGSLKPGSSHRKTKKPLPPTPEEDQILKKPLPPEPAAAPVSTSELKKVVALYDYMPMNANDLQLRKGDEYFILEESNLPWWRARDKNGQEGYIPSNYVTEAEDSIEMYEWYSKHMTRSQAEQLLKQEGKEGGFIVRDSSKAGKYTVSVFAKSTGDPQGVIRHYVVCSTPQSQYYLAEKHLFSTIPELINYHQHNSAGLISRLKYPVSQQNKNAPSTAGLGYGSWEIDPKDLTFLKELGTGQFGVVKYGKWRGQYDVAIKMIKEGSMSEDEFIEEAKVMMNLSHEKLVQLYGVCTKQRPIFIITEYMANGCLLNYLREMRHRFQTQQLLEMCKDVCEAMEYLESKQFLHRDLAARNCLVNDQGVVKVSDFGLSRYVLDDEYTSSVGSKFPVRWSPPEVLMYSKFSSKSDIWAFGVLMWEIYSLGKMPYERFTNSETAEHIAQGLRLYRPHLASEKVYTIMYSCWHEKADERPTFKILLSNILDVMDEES
T4 sequence (O60674 whole entry): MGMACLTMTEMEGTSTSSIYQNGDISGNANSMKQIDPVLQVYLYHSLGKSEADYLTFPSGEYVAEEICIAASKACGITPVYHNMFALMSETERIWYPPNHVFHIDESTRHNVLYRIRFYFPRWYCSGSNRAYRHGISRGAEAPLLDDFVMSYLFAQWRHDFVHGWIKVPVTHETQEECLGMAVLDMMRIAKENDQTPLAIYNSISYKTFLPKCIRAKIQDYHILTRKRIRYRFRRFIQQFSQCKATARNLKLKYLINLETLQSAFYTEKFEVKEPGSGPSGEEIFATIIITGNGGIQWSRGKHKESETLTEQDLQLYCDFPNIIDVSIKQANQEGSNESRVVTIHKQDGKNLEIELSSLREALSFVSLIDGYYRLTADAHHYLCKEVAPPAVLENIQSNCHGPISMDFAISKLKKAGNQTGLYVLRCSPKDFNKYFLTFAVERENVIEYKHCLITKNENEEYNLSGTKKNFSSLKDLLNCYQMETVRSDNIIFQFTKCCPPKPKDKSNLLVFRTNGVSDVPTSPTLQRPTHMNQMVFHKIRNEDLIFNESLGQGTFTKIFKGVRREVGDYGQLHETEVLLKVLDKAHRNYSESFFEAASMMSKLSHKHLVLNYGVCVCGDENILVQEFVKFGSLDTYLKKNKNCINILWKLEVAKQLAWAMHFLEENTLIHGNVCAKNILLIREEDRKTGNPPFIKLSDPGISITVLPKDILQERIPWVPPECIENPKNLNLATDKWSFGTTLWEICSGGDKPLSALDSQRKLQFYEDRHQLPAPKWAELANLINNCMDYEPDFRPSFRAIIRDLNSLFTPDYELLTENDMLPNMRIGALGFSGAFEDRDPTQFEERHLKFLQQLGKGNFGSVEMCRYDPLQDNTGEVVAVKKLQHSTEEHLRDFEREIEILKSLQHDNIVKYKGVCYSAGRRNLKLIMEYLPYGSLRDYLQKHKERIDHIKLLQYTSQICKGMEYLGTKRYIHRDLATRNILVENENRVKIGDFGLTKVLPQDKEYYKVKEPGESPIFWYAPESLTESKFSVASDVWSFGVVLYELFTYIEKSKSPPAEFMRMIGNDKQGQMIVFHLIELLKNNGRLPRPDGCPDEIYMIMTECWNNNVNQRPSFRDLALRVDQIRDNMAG
T1 sequence (P04629 33-796): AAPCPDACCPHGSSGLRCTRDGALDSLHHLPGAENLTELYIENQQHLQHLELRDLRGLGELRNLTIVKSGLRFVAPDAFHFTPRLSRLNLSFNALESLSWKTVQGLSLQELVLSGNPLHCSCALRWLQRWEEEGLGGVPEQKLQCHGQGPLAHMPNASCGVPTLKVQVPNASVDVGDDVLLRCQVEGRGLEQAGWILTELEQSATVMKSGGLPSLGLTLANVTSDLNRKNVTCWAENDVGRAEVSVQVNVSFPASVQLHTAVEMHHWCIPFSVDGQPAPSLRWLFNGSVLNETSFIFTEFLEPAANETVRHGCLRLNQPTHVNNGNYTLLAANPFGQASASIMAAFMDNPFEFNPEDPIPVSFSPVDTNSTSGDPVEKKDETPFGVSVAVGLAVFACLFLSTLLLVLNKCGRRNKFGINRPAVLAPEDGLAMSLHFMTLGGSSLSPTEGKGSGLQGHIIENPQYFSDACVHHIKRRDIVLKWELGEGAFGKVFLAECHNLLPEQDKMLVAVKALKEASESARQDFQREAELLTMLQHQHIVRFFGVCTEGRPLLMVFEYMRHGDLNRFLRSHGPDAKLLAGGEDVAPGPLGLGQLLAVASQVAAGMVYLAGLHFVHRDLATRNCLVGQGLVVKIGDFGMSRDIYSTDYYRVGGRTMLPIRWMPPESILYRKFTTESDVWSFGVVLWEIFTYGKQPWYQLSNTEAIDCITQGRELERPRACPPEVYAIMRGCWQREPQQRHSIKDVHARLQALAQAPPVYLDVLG
T2 sequence (P23458 whole entry): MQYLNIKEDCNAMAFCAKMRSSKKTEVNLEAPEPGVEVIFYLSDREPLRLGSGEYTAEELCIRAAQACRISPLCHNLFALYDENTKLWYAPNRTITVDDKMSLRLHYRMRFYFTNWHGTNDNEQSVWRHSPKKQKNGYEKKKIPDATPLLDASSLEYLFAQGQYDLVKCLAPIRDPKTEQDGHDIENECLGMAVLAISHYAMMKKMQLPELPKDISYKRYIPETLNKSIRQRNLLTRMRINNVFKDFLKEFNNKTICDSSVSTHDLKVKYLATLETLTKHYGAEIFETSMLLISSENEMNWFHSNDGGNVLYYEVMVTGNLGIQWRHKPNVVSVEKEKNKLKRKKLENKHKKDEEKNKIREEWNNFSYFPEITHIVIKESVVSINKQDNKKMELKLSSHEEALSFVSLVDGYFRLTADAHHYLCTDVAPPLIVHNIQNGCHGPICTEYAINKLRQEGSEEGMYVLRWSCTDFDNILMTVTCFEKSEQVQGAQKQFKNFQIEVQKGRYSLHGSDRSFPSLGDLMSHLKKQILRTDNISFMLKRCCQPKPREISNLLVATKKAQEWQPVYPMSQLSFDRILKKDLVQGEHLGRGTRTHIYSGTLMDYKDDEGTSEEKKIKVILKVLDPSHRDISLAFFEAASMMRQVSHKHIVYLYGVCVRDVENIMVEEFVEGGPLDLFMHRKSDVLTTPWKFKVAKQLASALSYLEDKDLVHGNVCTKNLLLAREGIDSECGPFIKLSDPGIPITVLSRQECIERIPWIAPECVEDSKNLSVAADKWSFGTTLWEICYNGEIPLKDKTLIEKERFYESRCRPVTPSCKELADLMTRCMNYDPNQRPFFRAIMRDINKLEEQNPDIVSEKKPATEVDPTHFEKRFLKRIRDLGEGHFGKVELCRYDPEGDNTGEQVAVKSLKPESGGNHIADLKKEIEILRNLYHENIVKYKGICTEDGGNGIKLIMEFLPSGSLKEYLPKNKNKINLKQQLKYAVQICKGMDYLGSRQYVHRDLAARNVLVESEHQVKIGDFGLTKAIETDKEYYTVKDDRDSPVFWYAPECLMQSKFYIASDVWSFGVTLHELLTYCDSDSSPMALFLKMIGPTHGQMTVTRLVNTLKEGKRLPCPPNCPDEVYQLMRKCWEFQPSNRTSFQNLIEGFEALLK

| IC50 (TrkA (h)) [nM] | IC50 (JAK1 (h)) [nM] | IC50 (Flt3 (h)) [nM] | activity at 1 µM (Flt3 (h)) [%] | IC50 (JAK2 (h)) [nM] | IC50 (Flt3 (D835Y) (h)) [nM] | activity at 1 µM (Flt3 (D835Y) (h)) [%] | IC50 (BTK (h)) [nM] | activity at 1 µM (BTK (h)) [%] | Compound |
| --- | --- | --- | --- | --- | --- | --- | --- | --- | --- |
| 2 | 106 | 15 | 5 | 16 | 10 | -1 | 348 | 16 | C=CC(=O)Nc1cc2cc(c1)Nc1nccc(n1)-c1cccc(c1)COC/C=C/COC2 [XVI-6] |
| 2 | 17 | 8 | 4 | 6 | 9 | -1 | 157 | 6 | Nc1cc2cc(c1)Nc1nccc(n1)-c1cccc(c1)COC/C=C/COC2 [XIII-1] |
| 3 | 262 | 9 | 2 | 29 | 9 | -2 | 48 | 9 | CN(C)C/C=C/C(=O)Nc1cc2cc(c1)Nc1nccc(n1)-c1cccc(c1)COC/C=C/COC2 [XVI-8] |
| 2 | 33 | 7 | 4 | 13 | 7 | -1 |  | 8 | C#CC(=O)Nc1cc2cc(c1)Nc1nccc(n1)-c1cccc(c1)COC/C=C/COC2 [XVII-1] |
| 18 | 492 | 15 | -8 | 124 | 3 | 7 |  | 38 | C1=C/COCc2cccc(c2)-c2ccnc(n2)Nc2cc(cc(OC/C=C/CN3CCCC3)c2)COC/1 [XVI-12] |
| 2 | 44 | 4 | 3 | 6 | 5 | 1 | 40 | 7 | O=C(/C=C/CN1CCOCC1)Nc1cc2cc(c1)Nc1nccc(n1)-c1cccc(c1)COC/C=C/COC2 [XVI-3] |
| 3 | 19 | 31 | 4 | 7 | 5 | 1 |  | 62 | O=C(O)/C=C/C(=O)Nc1cc2cc(c1)Nc1nccc(n1)-c1cccc(c1)COC/C=C/COC2 [XVI-9] |
| 16 | 89 | 21 | 3 | 17 | 4 | 5 |  | 31 | O=C(/C=C/C(=O)N1CCOCC1)Nc1cc2cc(c1)Nc1nccc(n1)-c1cccc(c1)COC/C=C/COC2 [XVI-10] |
| 20 | 40 | 9 | 8 | 86 | 20 | 1 | 1470 | 57 | C/C=C/C(=O)Nc1cc2cc(c1)Nc1nccc(n1)-c1cccc(c1)COC/C=C/CN(C)C2 [XVI-28] |
| 28 | 136 | 21 | 7 | 328 | 17 | 0 | 1250 | 50 | CN(C)C/C=C/C(=O)Nc1cc2cc(c1)Nc1nccc(n1)-c1cccc(c1)COC/C=C/CN(C)C2 [XVI-26] |
| 21 | 167 | 22 | 1 | 38 | 6 | 1 |  | 18 | O=C(/C=C/C(=O)N1CCNCC1)Nc1cc2cc(c1)Nc1nccc(n1)-c1cccc(c1)COC/C=C/COC2 [XVI-11] |
| 1 | 69 | 2 | 1 | 9 | 3 | -1 | 29 | 2 | O=C(/C=C/CN1CCCC1)Nc1cc2cc(c1)Nc1nccc(n1)-c1cccc(c1)COC/C=C/COC2 [XVI-1] |
| 2 | 44 | 5 | 5 | 10 | 10 | -1 | 238 | 9 | C/C=C/C(=O)Nc1cc2cc(c1)Nc1nccc(n1)-c1cccc(c1)COC/C=C/COC2 [XVI-4] |
